Measured values: ChEMBL document CHEMBL1143857, “(Phenylpiperazinyl)cyclohexylureas: discovery of alpha1a/1d-selective adrenergic receptor antagonists for the treatment of benign prostatic hyperplasia/lower urinary tract symptoms (BPH/LUTS)” (Bioorg Med Chem Lett, 2008)
pKi: −log10 of the molar value.

How the values were obtained:
[1] = molecular target: T1, Alpha-1B adrenergic receptor (Homo sapiens, UniProt P35368); test: Displacement of [125I]HEAT from human recombinant adrenergic Alpha-1B receptor
T1 sequence (P35368 whole entry): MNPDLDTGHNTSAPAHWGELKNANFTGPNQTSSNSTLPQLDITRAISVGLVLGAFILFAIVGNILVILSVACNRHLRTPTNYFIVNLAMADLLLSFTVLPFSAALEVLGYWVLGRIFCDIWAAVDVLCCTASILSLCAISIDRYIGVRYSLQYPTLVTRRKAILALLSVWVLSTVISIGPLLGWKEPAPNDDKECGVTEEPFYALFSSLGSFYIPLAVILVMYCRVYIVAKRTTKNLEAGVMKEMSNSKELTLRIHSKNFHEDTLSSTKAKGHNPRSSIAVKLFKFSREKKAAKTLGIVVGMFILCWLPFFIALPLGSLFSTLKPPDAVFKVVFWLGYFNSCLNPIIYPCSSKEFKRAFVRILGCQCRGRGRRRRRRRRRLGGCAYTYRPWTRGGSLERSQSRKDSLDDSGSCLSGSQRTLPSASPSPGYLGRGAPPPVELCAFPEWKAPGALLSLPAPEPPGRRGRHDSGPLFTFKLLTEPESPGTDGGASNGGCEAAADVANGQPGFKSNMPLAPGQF

[2] = molecular target: T2, Alpha-1A adrenergic receptor (Homo sapiens, UniProt P35348); test: Displacement of [125I]HEAT from human recombinant adrenergic alpha1A receptor
T2 sequence (P35348 whole entry): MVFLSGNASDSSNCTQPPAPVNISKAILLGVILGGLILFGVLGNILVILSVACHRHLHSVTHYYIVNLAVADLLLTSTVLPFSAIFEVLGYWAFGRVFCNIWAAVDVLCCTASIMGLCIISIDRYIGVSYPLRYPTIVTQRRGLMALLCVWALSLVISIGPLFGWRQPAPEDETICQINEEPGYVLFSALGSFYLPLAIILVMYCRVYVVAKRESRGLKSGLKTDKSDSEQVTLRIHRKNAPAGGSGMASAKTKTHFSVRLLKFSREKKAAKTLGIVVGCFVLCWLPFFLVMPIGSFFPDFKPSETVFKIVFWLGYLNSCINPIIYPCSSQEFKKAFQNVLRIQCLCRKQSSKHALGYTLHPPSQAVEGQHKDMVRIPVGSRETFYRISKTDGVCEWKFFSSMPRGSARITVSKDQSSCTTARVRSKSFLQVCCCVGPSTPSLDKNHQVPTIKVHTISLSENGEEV

D(2) dopamine receptor = D(2) dopamine receptor (Homo sapiens, UniProt P14416); test: Displacement of [125I]spiperone from human recombinant dopamine D2 receptor
D(2) dopamine receptor, sequence (P14416 whole entry): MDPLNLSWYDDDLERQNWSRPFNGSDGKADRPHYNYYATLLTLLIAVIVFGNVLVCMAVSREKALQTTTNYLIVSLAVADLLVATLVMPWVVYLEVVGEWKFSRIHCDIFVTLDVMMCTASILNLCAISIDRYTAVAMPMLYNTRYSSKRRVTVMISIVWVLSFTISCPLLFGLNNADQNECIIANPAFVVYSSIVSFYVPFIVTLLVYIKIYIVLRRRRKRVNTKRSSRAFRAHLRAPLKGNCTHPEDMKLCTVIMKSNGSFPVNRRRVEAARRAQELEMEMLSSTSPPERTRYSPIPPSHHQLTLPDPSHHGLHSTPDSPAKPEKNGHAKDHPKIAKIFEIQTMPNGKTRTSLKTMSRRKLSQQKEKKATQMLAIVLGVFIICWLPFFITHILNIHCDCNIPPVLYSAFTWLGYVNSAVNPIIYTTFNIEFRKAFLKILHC

Homo sapiens = species: Homo sapiens; test: Selectivity for human alpha1A receptor over human Alpha-1D receptor

Row | SMILES | pKi [1] | pKi [2] | pKi (D(2) dopamine receptor) | Ratio Ki (Homo sapiens)
1 | COc1ccccc1NC(=O)NC1CCC(N2CCN(c3ccccc3OC(C)C)CC2)CC1 (stereo in doubt; trans) | 6.97 | 7.42 | 6.04 | –
2 | CC(C)Oc1ccccc1N1CCN(C2CCC(NC(=O)Nc3ccccc3Cl)CC2)CC1 (cis isomer) | 6.43 | 7.32 | 6.06 | –
3 | CC(C)Oc1ccccc1N1CCN(C2CCC(NC(=O)Nc3ccccc3Cl)CC2)CC1 (stereo in doubt) [listing 1 of 2 here] | – | – | – | 4
4 | CC(C)Oc1ccccc1N1CCN(C2CCC(NC(=O)Nc3c(Cl)cccc3Cl)CC2)CC1 (stereo in doubt; cis) | – | 7.48 | 7.26 | –
5 | COc1ccccc1NC(=O)NC1CCC(N2CCN(c3ccccc3OC(C)C)CC2)CC1 (stereo in doubt; cis) | 6.65 | 6.81 | 6.41 | –
6 | CC(C)Oc1ccccc1N1CCN(C2CCC(NC(=O)Nc3cccc(Cl)c3)CC2)CC1 (stereo in doubt; trans) | – | 8.29 | 7.08 | –
7 | CC(C)Oc1ccccc1N1CCN(C2CCC(NC(=O)Nc3cccc(Cl)c3)CC2)CC1 (stereo in doubt; cis) | – | 7.66 | 6.97 | –
8 | CC(C)Oc1ccccc1N1CCN(C2CCC(NC(=O)Nc3cc(F)ccc3F)CC2)CC1 (stereo in doubt) [listing 1 of 2 here] | 7.44 | 8.77 | 9.34 | –
9 | CC(C)Oc1ccccc1N1CCN(C2CCC(NC(=O)Nc3c(F)cccc3F)CC2)CC1 (stereo in doubt; trans) | 7.44 | 8.28 | 8.62 | –
10 | CC(C)Oc1ccccc1N1CCN(C2CCC(NC(=O)Nc3ccc(F)c(F)c3)CC2)CC1 (cis isomer) | 6.02 | 7.29 | 6.90 | –
11 | CC(C)Oc1ccccc1N1CCN(C2CCC(NC(=O)Nc3ccccc3Cl)CC2)CC1 (stereo in doubt) [listing 2 of 2 here] | 7.41 | 7.96 | 7.48 | –
12 | CC(C)Oc1ccccc1N1CCN(C2CCC(NC(=O)Nc3c(F)cccc3F)CC2)CC1 (stereo in doubt; cis) | 6.52 | 7.28 | 7.66 | –
13 | CC(C)Oc1ccccc1N1CCN(C2CCC(NC(=O)Nc3c(Cl)cccc3Cl)CC2)CC1 (stereo in doubt; trans) | – | 8.21 | 8.33 | –
14 | CC(C)Oc1ccccc1N1CCN(C2CCC(NC(=O)Nc3c(Cl)cc(Cl)cc3Cl)CC2)CC1 (stereo in doubt) | 6.32 | 7.29 | 6.99 | –
15 | COc1ccc(Cl)cc1NC(=O)NC1CCC(N2CCN(c3ccccc3OC(C)C)CC2)CC1 (trans isomer) | – | 7.47 | 8.92 | –
16 | CC(C)Oc1ccccc1N1CCN(C2CCC(NC(=O)Nc3cc(F)ccc3F)CC2)CC1 (stereo in doubt) [listing 2 of 2 here] | – | – | – | 4
17 | CC(C)Oc1ccccc1N1CCN(C2CCC(NC(=O)Nc3ccc(F)cc3F)CC2)CC1 (cis isomer) | 6.32 | 7.85 | 7.45 | –
18 | COc1ccc(NC(=O)NC2CCC(N3CCN(c4ccccc4OC(C)C)CC3)CC2)c(OC)c1 (stereo in doubt; cis) | – | 6.96 | 6.54 | –
19 | CC(C)Oc1ccccc1N1CCN(C2CCC(NC(=O)Nc3c(Cl)cc(Cl)cc3Cl)CC2)CC1 (trans isomer) [listing 1 of 2 here] | – | – | – | 4
20 | CC(C)Oc1ccccc1N1CCN(C2CCC(NC(=O)NCc3cccc(F)c3)CC2)CC1 (stereo in doubt; cis) | 6.15 | 7.09 | 6.74 | –
21 | CC(C)Oc1ccccc1N1CCN(C2CCC(NC(=O)Nc3ccc(F)cc3F)CC2)CC1 (trans isomer) | 7.12 | 8.51 | 9.16 | –
22 | CC(C)Oc1ccccc1N1CCN(C2CCC(NC(=O)Nc3cc(F)ccc3F)CC2)CC1 (cis isomer) | 6.59 | 7.59 | 6.70 | –
23 | CC(C)Oc1ccccc1N1CCN(C2CCC(NC(=O)NCc3cccc(F)c3)CC2)CC1 (stereo in doubt; trans) [listing 1 of 2 here] | 7.16 | 7.96 | 6.92 | –
24 | COc1ccc(Cl)cc1NC(=O)NC1CCC(N2CCN(c3ccccc3OC(C)C)CC2)CC1 (cis isomer) | – | 7.00 | 7.00 | –
25 | COc1ccc(NC(=O)NC2CCC(N3CCN(c4ccccc4OC(C)C)CC3)CC2)c(OC)c1 (stereo in doubt; trans) | – | 7.13 | 6.05 | –
26 | CC(C)Oc1ccccc1N1CCN(C2CCC(NC(=O)Nc3ccc(F)c(F)c3)CC2)CC1 (stereo in doubt) | 7.22 | 8.44 | 7.27 | –
27 | CC(C)Oc1ccccc1N1CCN(C2CCC(NC(=O)Nc3c(Cl)cc(Cl)cc3Cl)CC2)CC1 (trans isomer) [listing 2 of 2 here] | 6.95 | 8.19 | 8.19 | –
28 | CC(C)Oc1ccccc1N1CCN(C2CCC(NC(=O)NCc3cccc(F)c3)CC2)CC1 (stereo in doubt; trans) [listing 2 of 2 here] | – | – | – | 4
